How the values were obtained:
[1] = test system: LtP, axenic Leishmania tarentolae amastigotes and Leishmania donovani promastigotes; parameters: method as in PMID 29996524; conditions: read-out: IC50 in viability tests; cited from earlier work
[2] = test system: Leishmania tarentolae promastigotes (LtP); assay: Resazurin viability assay for LtP; type: cell-based; conditions: Leishmania tarentolae, 48 h, read-out: LtP IC50
Method: (§1) The influence of AcEP and their analogs (Ac) on the viability of cells was tested in Leishmania tarentolae promastigotes (LtP) and J774 macrophages (Table 2). Based on the changes of viability of the respective cell lines at different compound concentrations, IC50 values were calculated. In Table 2, the IC50 values in both cell lines were compared for the individual compounds. From the ratio of IC50 values in J774 macrophages to IC50 values in LtP, an in vitro selectivity was calculated.
LtP (strain P10 from Jena Bioscience, Jena, Germany) were cultivated according to manufacturer instructions up to passage 50 in brain heart infusion medium (37 g/L, pH 7.4) and supplemented with 5 mg/L hemin and 25,000 IU/L penicillin and 25 mg/L streptomycin in 50 mL TubeSpin bioreactors (TPP, Trasadingen. Switzerland). LtP were grown at 27 °C in an incubator (Ehret, Emmendingen, Germany) and agitated at a frequency of 0.05 s^−1. […] For experiments, LtP were used one day after passage. The cell number was calculated by measuring the optical density (OD) of the culture at 600 nm with a U-1100 photometer (Hitachi Ltd., Tokyo, Japan) and applying the formula × 10^6 cells/mL = OD600nm × 0.969 × 124 × dilution factor [53].
Assay medium of YEM (20.7 g/L yeast extract powder, 1.2 g/L K2HPO4, 0.2 g/L KH2PO4, 2.9 g/L glucose, pH 7.4) and PBS (1:1, v/v), 25,000 U/L penicillin, 25 mg/L streptomycin, and 7.7 µM hemin was prepared. Aliquots of 200 µL of this medium and 2 × 10^6 LtP/mL (where required) were distributed in non-treated cell culture 96-well plates. Compounds (dissolved in DMSO) were added with starting concentrations of 25 µM (Pen) or 200 µM (AcEP/Ac), and then, serial dilutions were carried out resulting in a set of concentrations (25, 5, 1, 0.2, 0.04, and 0.008 µM) or (200, 40, 8, 1.6, 0.32, and 0.064 µM). For each compound concentration, at least triplicates on each plate were performed. After incubation of the plates at 27 °C for 48 h, 50 µL of resazurin solution (final concentration in wells 20 µM) was added to each well and after 4 h of incubation, the fluorescence was measured at 560 nm excitation and 590 nm emission using a plate reader (Perkin Elmer EnSpire, Rodgau, Germany) (adapted from). Combination assays for viability in the presence of PIH and NAC were performed the same way. […] All tests were repeated at least on four different weeks of cultivation.
(§2) Calculations were carried out using Microsoft Excel 2016 (Microsoft). The graphs were created using Origin 6.1 (OriginLab Corporation, Northampton, MA, USA). For all groups of experimental data, mean and standard deviation (SD) were calculated. Statistically significant differences between groups of sample data were identified by unpaired two-tailed Student’s t-test. Differences on the level of p < 0.05 were considered significant. The number of replicates is indicated at the respective figures/tables. The half-maximal inhibitory concentrations (IC50) were determined from non-linear concentration-response curves using a four-parameter logistic model and expressed as the mean ± SD.

J774 macrophages = assay: Resazurin viability assay for J774 macrophages; type: cell-based, murine; conditions: Mus musculus, J774, 48 h, read-out: J774 IC50, resazurin viability, endpoint 48 h, 10^5 J774 cells/mL, mean ± SD of 4–8 experiments
Method: as §1
The murine macrophage cell line J774A.1 (ATCC, TIB-67™, Wesel, Germany) was cultivated up to passage 30 in DMEM (high glucose, 3.7 g/L NaHCO3, pH 7.4) with 25,000 IU/L penicillin, 25 mg/L streptomycin, and 10% FCS (heat-inactivated) in 50 mL TubeSpin bioreactors. J774 cells were incubated at 37 °C and 5% CO2 on a roller culture apparatus (5 rpm) in a Heraeus Cytoperm 8080 incubator (Thermo Electron Corp., Vienna, Austria). To determine the cell count, the cell suspension was re-suspended and diluted 1:2 with phosphate-buffered saline (PBS): 137 mM NaCl, 1.4 mM KH2PO4, 4.3 mM Na2HPO4, and 2.7 mM KCl, pH 7.4. After fixation of the cells by mixing the cell suspension 1:1 with a formaldehyde solution (2%, v/v), aliquots of the resulting suspension were transferred into a standard Neubauer chamber (VWR, Austria) and counted manually using a light microscope (Motic BA310, Vienna, Austria) at a magnification of 40 times. J774 cells were passaged twice a week in a ratio of 1:10.
DMEM containing 25,000 U/L penicillin, 25 mg/L streptomycin, 10% FCS, and 1 × 10^5 J774/mL was prepared. This mixture (200 µL) was distributed in cell culture-treated 96-well plates, except the control wells which contained only DMEM. The cells were incubated for 24 h at 37 °C and 5% CO2 to allow attachment. Afterwards the medium and non-adherent cells were removed by washing with PBS, and then, 200 µL DMEM was added to attached cells. Compounds dissolved in DMSO were added in starting concentrations of 25 µM (Pen) or 200 µM (AcEP/Ac), and then, serial dilutions were carried out resulting in the same concentration steps as listed for LtP. For each compound concentration triplicates on each plate were performed. […], 50 µL of resazurin solution (final concentration 20 µM) was added, and after 4 h of incubation, the fluorescence was measured at 560 nm excitation and 590 nm emission using a plate reader (Perkin Elmer EnSpire, Rodgau, Germany). All tests were repeated at least on four different weeks of cultivation.
as §2

IC50 [2] [µM]	Structure (SMILES)	IC50 [1] [µM]	IC50 (J774 macrophages) [µM]
	O=C1c2ccccc2C(=O)c2ccccc21 [anthraquinone, reference compound]	> 100	
> 200	c1ccc2cc3ccccc3cc2c1 [Ac, anthracene]	> 100	> 200

— PMC9612231, “Antileishmanial Anthracene Endoperoxides: Efficacy In Vitro, Mechanisms and Structure-Activity Relationships” (Molecules, 2022)
